Assay results from PMC5844530, “Fosmetpantotenate (RE-024), a phosphopantothenate replacement therapy for pantothenate kinase-associated neurodegeneration: Mechanism of action and efficacy in nonclinical models” (PLoS ONE, 2018).
Values joined by “and” are separate entries in the source; they are usually repeats but may differ in a detail not shown here. Identical values can stand only once.

Experiments:
[1] = Metabolic stability in rat whole blood; type: in vitro ADME; conditions: for Percentage Remaining: rat whole blood, replicates 1 and 2, listed as Fosmetpantotenate Total
Procedure: Metabolic stability in blood and liver microsomes: Fosmetpantotenate or its individual diastereomers (5 μM, n = 2, 37°C) were incubated in mouse, rat, cynomolgus monkey, and human whole blood. Samples (50 μL) were taken at 0, 5, 15, 30, and 60 min. Incubations of fosmetpantotenate or its individual diastereomers (1 μM, n = 2, 37°C) in pooled liver microsomes (0.25 mg protein/mL in 0.1 M phosphate buffer pH 7.4) were initiated with the addition of nicotinamide adenine dinucleotide phosphate (NADPH; 1 mM). Aliquots (100 μL) were obtained at 0, 5, 10, 20, and 40 min and added to 150 μL of 0.1% formic acid in acetonitrile-containing carbamazepine (0.5 μM) as an analytical internal standard, centrifuged, and the supernatants analyzed by LC-MS/MS.
Bioanalysis for determinations of analyte stability: Samples were analyzed using a benchtop tandem quadrupole detector (TQD) mass spectrometer (Waters Ltd, Centennial Park, Hertfordshire). […] Suitable retention and peak shape with separation of the 2 diastereomers were obtained. The chromatography column was a Phenomenex-Kinetex XB C18 (2.10 x 50 mm; 2.6 μm), with a 0.7 mL/min flow rate and a 2 μL injection volume. […] The gradient was initiated with 20% B and increased linearly, reaching 40% B at 0.6 min, followed by 50% B at 0.8 min and by 95% B at 0.9 min. Conditions were kept isocratic through 1.2 min, returned to starting conditions (20% B) at 1.25 min, and maintained at 20% B through 1.5 min before the next injection. Since fosmetpantotenate is a mixture of diastereomers which are resolved chromatographically, the fosmetpantotenate MRM area corresponds to the sum of the MRM areas of the individual diastereomers.
The percent of compound remaining was determined from the MRM area response in each sample relative to that in the T = 0 samples (normalized for internal standard). Natural log plots of the percent compound remaining over time were used to determine the t½ of compound disappearance using the relationship t½ = -0.693/λ, where λ is the slope of the natural logarithm of the percent compound remaining vs time curve.

[2] = Pharmacokinetics in whole blood, Sprague-Dawley rats; conditions: male Sprague-Dawley rats, blood, BQL <1.26 nM
Procedure: (§1) The whole blood samples (0.5 mL) were collected into syringes that were prefilled with 2.5 mL of ice-cold 0.1% formic acid in acetonitrile. The volume ratio of the whole blood to 0.1% formic acid in acetonitrile was 1/5 (v/v). Samples were frozen (-70°C) until analyzed by LC-MS/MS.
(§2) Standard curves and quality control (QC) samples were prepared fresh on the day of analysis by serial dilution of the standard mixture in quenched whole blood (1 part of blood to 5 parts of 0.1% formic acid in acetonitrile) and centrifuged. […] The frozen study samples were thawed in an ice/water bath and centrifuged. Supernatant (50 μL) from standards, QC samples, and study samples was transferred to a 96-well plate and dried completely under nitrogen. The dried residues were reconstituted with 100 μL of 0.1% formic acid in water containing internal standard (5 ng/mL of ^15N/^13C3-RE-024-02) and analyzed by LC-MS/MS.
(§3) LC-MS/MS analysis for blood pharmacokinetic samples: Samples were analyzed using an Agilent 1100 binary pump (Agilent Technologies, Santa Clara, CA, USA), connected to an AB Sciex API 6500 mass spectrometer (SCIEX, Framingham, MA, USA). An electrospray ionization source was used, scanning in the positive mode. […] The chromatography column was a Varian Metasil AQ 120–5 C18 column, 5 μm, 50 x 2.00 mm (Part No. A0530050X020) at ambient temperature, with a 0.5 mL/min flow rate and a 20 μL injection volume. Mobile phase (A) consisted of 0.1% formic acid in water; while mobile phase (B) consisted of 0.1% formic acid in acetonitrile:water (9:1, v/v).
(§4) Quantitation of in vivo samples: Peak areas were integrated using Analyst software (AB Sciex, Concord, Ontario, Canada). […] Calibration standards (at a minimum 7 per curve) were fit by linear regression with (1/x^2) weighting. QC samples were used (triplicate) at 3 concentrations for all tandem mass spectrometry (MS/MS) runs.
(§5) Pharmacokinetic calculations: PK analysis was performed using Phoenix WinNonlin®, Build 6.3.0.395 (Certara, Princeton, NJ, USA) using a non-compartmental model (PO dose = model 200 for extravascular dosing). […] Post-dose concentrations below the limit of quantitation (BLQ) were omitted from calculation.

[3] = Pharmacokinetics in whole blood, cynomolgus monkeys; conditions: blood; for AUC: single PO fosmetpantotenate 300 mg/kg, mean (individual values), N = 2, analyte = label
Procedure: as §1, §2, §3, §4, §5

[4] = male cynomolgus monkeys, fosmetpantotenate 300 mg/kg oral, 0 hr
[5] = male cynomolgus monkeys, fosmetpantotenate 300 mg/kg oral, 0.033 hr
[6] = male cynomolgus monkeys, fosmetpantotenate 300 mg/kg oral, 8 hr

Structure (SMILES): COC(=O)CCNC(=O)[C@H](O)C(C)(C)COP(=O)(N[C@@H](C)C(=O)OC)Oc1ccccc1 (mixture of isomers) [Fosmetpantotenate]
- half-life at 5 μM ([1]; rat blood, 5 μM, 37°C, 60 min): < 5 min
- Percentage Remaining ([1]; 5 min): 6% and 1%
- Percentage Remaining ([1]; 15 min): 0% and 8%
- Percentage Remaining ([1]; 60 min): 0%
- Fosmetpantotenate Conc. ([2]; fosmetpantotenate 100 mg/kg oral, 0.033 hr, individual animals): BQL
- Fosmetpantotenate Mean Conc. ([2]; fosmetpantotenate 100 mg/kg oral, 0.033 hr, mean): BQL
- Fosmetpantotenate Conc. ([2]; fosmetpantotenate 100 mg/kg oral, 0.083 hr, individual animals): BQL
- Fosmetpantotenate Mean Conc. ([2]; fosmetpantotenate 100 mg/kg oral, 0.083 hr, mean): BQL
- Fosmetpantotenate Conc. ([2]; fosmetpantotenate 100 mg/kg oral, 0.167 hr, individual animals): BQL
- Fosmetpantotenate Mean Conc. ([2]; fosmetpantotenate 100 mg/kg oral, 0.167 hr, mean): BQL
- Fosmetpantotenate Conc. ([2]; fosmetpantotenate 100 mg/kg oral, 0.33 hr, individual animals): BQL
- Fosmetpantotenate Mean Conc. ([2]; fosmetpantotenate 100 mg/kg oral, 0.33 hr, mean): BQL
- Fosmetpantotenate Conc. ([2]; fosmetpantotenate 100 mg/kg oral, 0.5 hr, individual animals): BQL
- Fosmetpantotenate Conc. ([2]; fosmetpantotenate 100 mg/kg oral, 1 hr, individual animals): BQL
- Fosmetpantotenate Mean Conc. ([2]; fosmetpantotenate 100 mg/kg oral, 1 hr, mean): BQL
- Fosmetpantotenate Conc. ([2]; fosmetpantotenate 100 mg/kg oral, 2 hr, individual animals): BQL
- Fosmetpantotenate Mean Conc. ([2]; fosmetpantotenate 100 mg/kg oral, 2 hr, mean): BQL
- Fosmetpantotenate Conc. ([2]; fosmetpantotenate 100 mg/kg oral, 4 hr, individual animals): BQL
- Fosmetpantotenate Conc. ([2]; fosmetpantotenate 100 mg/kg oral, 8 hr, individual animals): BQL
- Fosmetpantotenate Mean Conc. ([2]; fosmetpantotenate 100 mg/kg oral, 8 hr, mean): BQL
- Fosmetpantotenate Conc. ([2]; fosmetpantotenate 300 mg/kg oral, 0.033 hr, individual animals): 4.15 nM and BQL
- Fosmetpantotenate Conc. ([2]; fosmetpantotenate 300 mg/kg oral, 0.083 hr, individual animals): BQL
- Fosmetpantotenate Mean Conc. ([2]; fosmetpantotenate 300 mg/kg oral, 0.083 hr, mean): BQL
- Fosmetpantotenate Conc. ([2]; fosmetpantotenate 300 mg/kg oral, 0.167 hr, individual animals): 8.83 nM and 22.89 nM and 22.51 nM
- Fosmetpantotenate Conc. ([2]; fosmetpantotenate 300 mg/kg oral, 0.33 hr, individual animals): BQL and 64.88 nM and 7.67 nM
- Fosmetpantotenate Conc. ([2]; fosmetpantotenate 300 mg/kg oral, 0.5 hr, individual animals): 2.28 nM and BQL and 577.94 nM
- Fosmetpantotenate Conc. ([2]; fosmetpantotenate 300 mg/kg oral, 1 hr, individual animals): BQL
- Fosmetpantotenate Conc. ([2]; fosmetpantotenate 300 mg/kg oral, 2 hr, individual animals): BQL
- Fosmetpantotenate Conc. ([2]; fosmetpantotenate 300 mg/kg oral, 4 hr, individual animals): BQL
- Fosmetpantotenate Conc. ([2]; fosmetpantotenate 300 mg/kg oral, 8 hr, individual animals): BQL
- Fosmetpantotenate Mean Conc. ([2]; fosmetpantotenate 300 mg/kg oral, 8 hr, mean): BQL
- Fosmetpantotenate Conc. ([2]; fosmetpantotenate 700 mg/kg oral, 0.033 hr, individual animals): 2149.90(a) nM and BQL and 114.07 nM
- Fosmetpantotenate Conc. ([2]; fosmetpantotenate 700 mg/kg oral, 0.083 hr, individual animals): 518.51 nM and BQL and 1.62 nM
- Fosmetpantotenate Conc. ([2]; fosmetpantotenate 700 mg/kg oral, 0.167 hr, individual animals): 28.96 nM and 23269.54(a) nM and 247.87 nM
- Fosmetpantotenate Conc. ([2]; fosmetpantotenate 700 mg/kg oral, 0.33 hr, individual animals): 2541.94 nM and 1277.3 nM and 54 nM
- Fosmetpantotenate Conc. ([2]; fosmetpantotenate 700 mg/kg oral, 0.5 hr, individual animals): 509.65 nM and 72.84 nM and 84.61 nM
- Fosmetpantotenate Conc. ([2]; fosmetpantotenate 700 mg/kg oral, 1 hr, individual animals): 73.35 nM and 63.86 nM and 214.99 nM
- Fosmetpantotenate Conc. ([2]; fosmetpantotenate 700 mg/kg oral, 2 hr, individual animals): BQL and 1035.75 nM
- Fosmetpantotenate Conc. ([2]; fosmetpantotenate 700 mg/kg oral, 4 hr, individual animals): 419.86 nM and BQL and 32.12 nM
- Fosmetpantotenate Conc. ([2]; fosmetpantotenate 700 mg/kg oral, 8 hr, individual animals): BQL
- Fosmetpantotenate Mean Conc. ([2]; fosmetpantotenate 700 mg/kg oral, 8 hr, mean): BQL
- concentration at 0.5 h ([2]; male, Sprague-Dawley, rat, in vivo, 100 mg/kg, Fosmetpantotenate Conc., fosmetpantotenate 100 mg/kg oral, 0.5 hr, individual animals): 3.31 nM
- concentration at 4 h ([2]; male, Sprague-Dawley, rat, in vivo, 100 mg/kg, Fosmetpantotenate Conc., fosmetpantotenate 100 mg/kg oral, 4 hr, individual animals): 2.04 nM
- concentration at 0.5 h ([2]; male, Sprague-Dawley, rat, in vivo, 100 mg/kg, Fosmetpantotenate Mean Conc., fosmetpantotenate 100 mg/kg oral, 0.5 hr, mean): 3.31 nM
- concentration at 4 h ([2]; male, Sprague-Dawley, rat, in vivo, 100 mg/kg, Fosmetpantotenate Mean Conc., fosmetpantotenate 100 mg/kg oral, 4 hr, mean): 2.04 nM
- concentration at 0.033 h ([2]; male, Sprague-Dawley, rat, in vivo, 300 mg/kg, Fosmetpantotenate Conc., fosmetpantotenate 300 mg/kg oral, 0.033 hr, individual animals): 3.9 nM
- concentration at 1 h ([2]; male, Sprague-Dawley, rat, in vivo, 300 mg/kg, Fosmetpantotenate Conc., fosmetpantotenate 300 mg/kg oral, 1 hr, individual animals): 6.98 nM
- concentration at 2 h ([2]; male, Sprague-Dawley, rat, in vivo, 300 mg/kg, Fosmetpantotenate Conc., fosmetpantotenate 300 mg/kg oral, 2 hr, individual animals): 3.41 nM
- concentration at 4 h ([2]; male, Sprague-Dawley, rat, in vivo, 300 mg/kg, Fosmetpantotenate Conc., fosmetpantotenate 300 mg/kg oral, 4 hr, individual animals): 3.69 nM
- concentration at 0.033 h ([2]; male, Sprague-Dawley, rat, in vivo, 300 mg/kg, Fosmetpantotenate Mean Conc., fosmetpantotenate 300 mg/kg oral, 0.033 hr, mean): 4.03 nM
- concentration at 0.167 h ([2]; male, Sprague-Dawley, rat, in vivo, 300 mg/kg, Fosmetpantotenate Mean Conc., fosmetpantotenate 300 mg/kg oral, 0.167 hr, mean): 18.1 nM
- concentration at 0.33 h ([2]; male, Sprague-Dawley, rat, in vivo, 300 mg/kg, Fosmetpantotenate Mean Conc., fosmetpantotenate 300 mg/kg oral, 0.33 hr, mean): 36.3 nM
- concentration at 0.5 h ([2]; male, Sprague-Dawley, rat, in vivo, 300 mg/kg, Fosmetpantotenate Mean Conc., fosmetpantotenate 300 mg/kg oral, 0.5 hr, mean): 290 nM
- concentration at 1 h ([2]; male, Sprague-Dawley, rat, in vivo, 300 mg/kg, Fosmetpantotenate Mean Conc., fosmetpantotenate 300 mg/kg oral, 1 hr, mean): 6.98 nM
- concentration at 2 h ([2]; male, Sprague-Dawley, rat, in vivo, 300 mg/kg, Fosmetpantotenate Mean Conc., fosmetpantotenate 300 mg/kg oral, 2 hr, mean): 3.41 nM
- concentration at 4 h ([2]; male, Sprague-Dawley, rat, in vivo, 300 mg/kg, Fosmetpantotenate Mean Conc., fosmetpantotenate 300 mg/kg oral, 4 hr, mean): 3.69 nM
- concentration at 2 hr ([2]; male, Sprague-Dawley, rat, in vivo, 700 mg/kg, Fosmetpantotenate Conc., fosmetpantotenate 700 mg/kg oral, 2 hr, individual animals): 663 nM
- concentration at 0.033 h ([2]; male, Sprague-Dawley, rat, in vivo, 700 mg/kg, Fosmetpantotenate Mean Conc., fosmetpantotenate 700 mg/kg oral, 0.033 hr, mean): 114 nM
- concentration at 0.083 h ([2]; male, Sprague-Dawley, rat, in vivo, 700 mg/kg, Fosmetpantotenate Mean Conc., fosmetpantotenate 700 mg/kg oral, 0.083 hr, mean): 260 nM
- concentration at 0.167 hr ([2]; male, Sprague-Dawley, rat, in vivo, 700 mg/kg, Fosmetpantotenate Mean Conc., fosmetpantotenate 700 mg/kg oral, 0.167 hr, mean): 138 nM
- concentration at 0.33 hr ([2]; male, Sprague-Dawley, rat, in vivo, 700 mg/kg, Fosmetpantotenate Mean Conc., fosmetpantotenate 700 mg/kg oral, 0.33 hr, mean): 1290 nM
- concentration at 0.5 hr ([2]; male, Sprague-Dawley, rat, in vivo, 700 mg/kg, Fosmetpantotenate Mean Conc., fosmetpantotenate 700 mg/kg oral, 0.5 hr, mean): 222 nM
- concentration at 1 hr ([2]; male, Sprague-Dawley, rat, in vivo, 700 mg/kg, Fosmetpantotenate Mean Conc., fosmetpantotenate 700 mg/kg oral, 1 hr, mean): 117 nM
- concentration at 2 hr ([2]; male, Sprague-Dawley, rat, in vivo, 700 mg/kg, Fosmetpantotenate Mean Conc., fosmetpantotenate 700 mg/kg oral, 2 hr, mean): 849 nM
- concentration at 4 h ([2]; male, Sprague-Dawley, rat, in vivo, 700 mg/kg, Fosmetpantotenate Mean Conc., fosmetpantotenate 700 mg/kg oral, 4 hr, mean): 226 nM
- AUC [3]: 34,400 (13000, 55800) nM*h
- AUC ([3]; cynomolgus monkey, in vivo, po, 300 mg/kg, AUC): 34 µM·h
- Fosmetpantotenate Mean Conc. [3, 4]: BQL
- Fosmetpantotenate blood concentration, Cyno #1 [3, 4]: BQL
- Fosmetpantotenate blood concentration, Cyno #2 [3, 4]: BQL
- Fosmetpantotenate Mean Conc. [3, 5]: BQL
- Fosmetpantotenate blood concentration, Cyno #1 [3, 5]: BQL
- Fosmetpantotenate blood concentration, Cyno #2 [3, 5]: BQL
- Fosmetpantotenate Mean Conc. [3, 6]: BQL
- Fosmetpantotenate blood concentration, Cyno #1 [3, 6]: BQL
- Fosmetpantotenate blood concentration, Cyno #2 [3, 6]: BQL
- concentration at 0.083 h ([3]; male, cynomolgus monkey, in vivo, 300 mg/kg, Fosmetpantotenate Mean Conc., male cynomolgus monkeys, fosmetpantotenate 300 mg/kg oral, 0.083 hr): 197 nM
- concentration at 0.167 h ([3]; male, cynomolgus monkey, in vivo, 300 mg/kg, Fosmetpantotenate Mean Conc., male cynomolgus monkeys, fosmetpantotenate 300 mg/kg oral, 0.167 hr): 906 nM
- concentration at 0.333 h ([3]; male, cynomolgus monkey, in vivo, 300 mg/kg, Fosmetpantotenate Mean Conc., male cynomolgus monkeys, fosmetpantotenate 300 mg/kg oral, 0.333 hr): 550 nM
- concentration at 0.5 h ([3]; male, cynomolgus monkey, in vivo, 300 mg/kg, Fosmetpantotenate Mean Conc., male cynomolgus monkeys, fosmetpantotenate 300 mg/kg oral, 0.5 hr): 376 nM
- concentration at 1 h ([3]; male, cynomolgus monkey, in vivo, 300 mg/kg, Fosmetpantotenate Mean Conc., male cynomolgus monkeys, fosmetpantotenate 300 mg/kg oral, 1 hr): 18700 nM
